Measurements as given in patent EP1067939B1, “USE OF STEROIDAL ALKALOID DERIVATIVES AS INHIBITORS OF HEDGEHOG PROTEIN SIGNALING PATHWAYS” (The Johns Hopkins University, priority 1998, dated 1999).
Where two headings read alike, the source gives them in different places.

What was measured:
His6Hh-C = target: T1, His6Hh-C (Drosophila melanogaster, UniProt Q02936); assay: In vitro Hh autoprocessing reaction with purified components; format: biochemical; details: for efficiency in driving the in vitro autoprocessing reaction: 12 µM sterol
T1 construct: made in house
T1 sequence (Q02936 252-471): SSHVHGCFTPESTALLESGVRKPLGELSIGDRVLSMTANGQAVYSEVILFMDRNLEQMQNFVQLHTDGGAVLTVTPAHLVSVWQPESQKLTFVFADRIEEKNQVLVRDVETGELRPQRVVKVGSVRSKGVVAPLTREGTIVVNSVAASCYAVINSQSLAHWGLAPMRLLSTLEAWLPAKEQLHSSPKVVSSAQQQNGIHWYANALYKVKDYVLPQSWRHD

Shh-N = assay: Intermediate neural plate explant response to exogenous Shh-N protein; format: cell-based, chick
BMP7 = assay: Neural plate explant response to BMP7 (migratory HNK-1 positive cells); format: cell-based, chick
[1] = at the concentrations that block the response to 25 nM Shh-N

## C[C@H]([C@H](O)CCC(C)(C)O)[C@H]1CC[C@@]2(O)C3=CC(=O)[C@@H]4C[C@@H](O)[C@@H](O)C[C@]4(C)[C@H]3CC[C@]12C [α-ecdysone]
His6Hh-C
  participation of sterol in the autoprocessing reaction: unable to participatein the reaction

## CC(C)CCC[C@@H](C)[C@H]1CC[C@H]2[C@@H]3CC=C4C[C@@H](S)CC[C@]4(C)[C@H]3CC[C@]12C [thiocholesterol]
His6Hh-C
  participation of sterol in the autoprocessing reaction: unable to participatein the reaction

## C[C@H](CCCC(C)(C)O)[C@H]1CC[C@H]2[C@@H]3CC=C4C[C@@H](O)CC[C@]4(C)[C@H]3CC[C@]12C [25-hydroxycholesterol]
Shh-N; 25 µM added together with teratogenic compounds
  reversal of the inhibitory effects of the teratogenic compounds: did not reverse the inhibitory effects
Shh-N; 25 µM, 2nM or 25 nM Shh-N
  explant responses to Shh-N: None of the explant responses to treatment with 2nM or 25 nM Shh-N were affected

## CC(C)CCC[C@@H](C)[C@H]1CC[C@H]2C3=CC=C4C[C@@H](O)CC[C@]4(C)[C@H]3CC[C@]12C [7DHC, 7-dehydrocholestetol]
His6Hh-C
  efficiency in driving the in vitro autoprocessing reaction: efficiencies similar to that of cholesterol

## CCN(CC)CCCC(C)Nc1ccnc2cc(Cl)ccc12 (centres unmarked) [chloroquine]
Shh-N
  concentration that blocks the response of intermediate neural plate explants to 25 nM Shh-N: 50 µM
BMP7
  signaling by BMP7: without affecting signaling by BMP7

## CC(C)CCC[C@@H](C)[C@H]1CC[C@H]2[C@@H]3CC=C4C[C@H](O)CC[C@]4(C)[C@H]3CC[C@]12C [Epicholesterol]
His6Hh-C
  participation of sterol in the autoprocessing reaction: unable to participatein the reaction

## CCN(CC)CCO[C@H]1CC[C@@]2(C)C(=CC[C@@H]3[C@@H]2CC[C@]2(C)C(=O)CC[C@@H]32)C1 [U 18666A]
Shh-N; 25 nM Shh-N
  concentration that blocks the response of intermediate neural plate explants to 25 nM Shh-N: 0.25 µM
BMP7; [1]
  signaling by BMP7: without affecting signaling by BMP7

## CC(C)=CCC[C@@H](C)[C@H]1CC[C@H]2[C@@H]3CC=C4C[C@@H](O)CC[C@]4(C)[C@H]3CC[C@]12C [desmosterol]
His6Hh-C
  efficiency in driving the in vitro autoprocessing reaction: efficiencies similar to that of cholesterol

## CC(C)(O)CC[C@@H](O)[C@](C)(O)[C@H]1CC[C@@]2(O)C3=CC(=O)[C@@H]4C[C@@H](O)[C@@H](O)C[C@]4(C)[C@H]3CC[C@]12C [20-OH ecdysone]
His6Hh-C
  participation of sterol in the autoprocessing reaction: unable to participatein the reaction

## CC(C)=CCC[C@@H](C)[C@H]1CC[C@@]2(C)C3=C(CC[C@]12C)[C@@]1(C)CC[C@H](O)C(C)(C)[C@@H]1CC3 [Lanosterol]
His6Hh-C; 12 and 350 µM
  stimulation of autoprocessing: do not stimulate autoprocessing above background

## CC(C)CCC[C@@H](C)[C@H]1CC[C@H]2C3=CC[C@H]4C[C@@H](O)CC[C@]4(C)[C@H]3CC[C@]12C [lathosterol]
His6Hh-C
  efficiency in driving the in vitro autoprocessing reaction: efficiencies similar to that of cholesterol

## CC(C)CC[C@@H](O)[C@](C)(O)[C@H]1CC[C@@]2(O)C3=CC(=O)[C@]4(O)C[C@@H](O)[C@@H](O)C[C@]4(C)[C@H]3[C@H](O)C[C@]12C [muristerone]
His6Hh-C
  stimulation of autoprocessing: do not stimulate autoprocessing above background

## CC(=O)O[C@H]1CC[C@@]2(C)C(=CC[C@H]3[C@@H]4CC[C@H]([C@H](C)CCCC(C)C)[C@@]4(C)CC[C@@H]32)C1 [cholesterol acetate]
His6Hh-C
  participation of sterol in the autoprocessing reaction: unable to participatein the reaction

## CC(=O)[C@H]1CC[C@H]2[C@@H]3CCC4=CC(=O)CC[C@]4(C)[C@H]3CC[C@]12C [progesterone]
Shh-N; 25 nM Shh-N
  concentration that blocks the response of intermediate neural plate explants to 25 nM Shh-N: 20 µM
BMP7; [1]
  signaling by BMP7: without affecting signaling by BMP7

## CN(C)CCCN1c2ccccc2CCc2ccccc21 [imipramine]
Shh-N; 25 nM Shh-N
  concentration that blocks the response of intermediate neural plate explants to 25 nM Shh-N: 75 µM
BMP7; [1]
  signaling by BMP7: without affecting signaling by BMP7
